Key:
SW1116 cells [1] = assay: Survival of xenograft-bearing mice; assay type: in vivo, BALB/c nude mice
Procedure: rAAV-Sur-Mut(Cys84Ala) prolonged the survival of mice. (A) Masses were injected in three sites with rAAV-Sur-Mut(Cys84Ala), rAAV-Sur(wt) and rAAV-eGFP at 5×10^10 viral particles/site of injection, or in combination with 5-Fluorouracil for 5 days. Tumor xenografts were collected and tissue sections of formalin-fixed, paraffin-embedded xenograft were TUNEL stained for apoptosis. (B) Survival curve. The experimental conditions were as in (A) Survival was monitored every day, and tumor volume was measured every week after treatment. Definition of death is natural death due to tumor burden or killing due to tumor sizes (diameter) more than 2.5 cm.
Five- to six-week-old female BALB/c nude mice were injected subcutaneously on the flanks with 2×10^6 exponentially growing SW1116 cells. Tumors were allowed to grow to 100˜150 mm^3 (5˜7 mm diameter). For local administration of rAAV, masses were injected in three sites with rAAV-Sur-Mut(Cys84Ala), rAAV-Sur(wt) or rAAV-EGFP at 5×10^10 viral particles/site of injection, or at each of the three site with PBS. Alternatively, mice were i.p. injected with 50 mg/kg 5-fluorouracil daily for 5 days, or a combination of rAAV virus and 5-Fluorouracil. Tumor growth was measured weekly after injection. In other experiments, mice received an injection of uninfected exponentially growing 2×10^6 SW1116 cells. […]

SW1116 cells [2] = assay: Intratumoral rAAV gene therapy in colon cancer xenograft model: tumor growth; assay type: in vivo, BALB/c nude mice; details: rAAV 5×10^10 particles/site, 3 sites; 5-FU i.p. 50 mg/kg on each of 5 days
Procedure: rAAV-Sur-Mut(Cys84Ala) inhibited tumor growth. (A) Untreated SW1116 cell were subcutaneously injected into the right flank of athymic female nude mice. Tumors were allowed to grow to approximately 100-150 mm^3 volume. Masses were injected in three sites with rAAV-Sur-Mut(Cys84Ala), rAAV-eGFP or rAAV-Sur(wt) at 5×10^10 viral particles/site of injection, or with PBS. Photographs were taken from representative mice 4 weeks after treatment. (B) Tumor growth was measured every week after injection. Data are the means±SEM of tumor size per mouse. (C) Tissue sections of formalin-fixed, paraffin-embedded xenograft tumors were stained by H&E, immunohistochemical stained for survivin or TUNEL stained for detection of apoptotic cells. Images were representative fields of view from tumors 5 days after treatment. (Original magnification ×200)
Five- to six-week-old female BALB/c nude mice were injected subcutaneously on the flanks with 2×10^6 exponentially growing SW1116 cells. Tumors were allowed to grow to 100˜150 mm^3 (5˜7 mm diameter). For local administration of rAAV, masses were injected in three sites with rAAV-Sur-Mut(Cys84Ala), rAAV-Sur(wt) or rAAV-EGFP at 5×10^10 viral particles/site of injection, or at each of the three site with PBS. Alternatively, mice were i.p. injected with 50 mg/kg 5-fluorouracil daily for 5 days, or a combination of rAAV virus and 5-Fluorouracil. Tumor growth was measured weekly after injection. In other experiments, mice received an injection of uninfected exponentially growing 2×10^6 SW1116 cells. After 7 days, mice were given an injection of same dosage of rAAV virus and 5-FU (3 animals/group). After 5 days, animals were euthanized, and their total tumor burden was excised, fixed and embedded in paraffin blocks for H&E, TUNEL and immunohistochemical staining, or tumors were snap-frozen in liquid nitrogen for CD31 staining.

SW1116 cells [3] = assay: Drug-induced apoptosis by FACS analysis (Table 1); assay type: cell-based, Human; details: rAAV 1×10^5 viral particle/cell, or followed by 10 μg/ml 5-fluorouracil for 72 hour; mean ± SEM
Procedure: Cells were collected and fixed in ice-cold 70% ethanol in PBS and stored at −20° C. before use. After re-suspension, cells were washed and incubated with 100 μl of RNase I (1 mg/ml) and 100 μl of propidium iodide (400 μg/ml; Sigma) at 37° C. for 30 min. Samples were analyzed by flow cytometry (Coulter, Luton). The cell-cycle phase distribution was calculated from the resultant DNA histogram using Multicycle AV software (Phoenix Flow Systems, San Diego, Calif.). Cells with subdiploid DNA content were scored as apoptotic.

O=c1[nH]cc(F)c(=O)[nH]1 [5-FU, 5-fluorouracil]
survival (comparison in words) (SW1116 cells [1]; mouse, in vivo): survived significantly longer than buffer-treated mice | clinical symptoms (SW1116 cells [1]; tumor-bearing mice): developed severe symptoms related to tumor growth | Number of mice with tumor regression (SW1116 cells [2]): 0/4 | Rate of inhibition (SW1116 cells [2]): 61.2% | Tumor size (SW1116 cells [2]): 606.3 ± 106.7 mm^3 | % Apoptosis (SW1116 cells [3]): 26.0 ± 3.4%
